Results as given in PMC10673058, “In Silico and In Vitro Search for Dual Inhibitors of the Trypanosoma brucei and Leishmania major Pteridine Reductase 1 and Dihydrofolate Reductase” (Molecules, 2023).
Like-named read-outs stand apart in the source and are kept apart here.

Assays:
LmDHFR = biological target: T1, LmDHFR (Leishmania major, UniProt P07382); assay: Spectrophotometric enzyme inhibition assay, recombinant LmDHFR; assay type: biochemical
T1 construct: The DNA fragment encoding LmDHFR was amplified by Phusion DNA polymerase; His6 (N); made in house; host or cells: E. coli BL21(DE3), vector pET 11D::LmDHFRHis
T1 sequence (P07382 26-229 limits assumed): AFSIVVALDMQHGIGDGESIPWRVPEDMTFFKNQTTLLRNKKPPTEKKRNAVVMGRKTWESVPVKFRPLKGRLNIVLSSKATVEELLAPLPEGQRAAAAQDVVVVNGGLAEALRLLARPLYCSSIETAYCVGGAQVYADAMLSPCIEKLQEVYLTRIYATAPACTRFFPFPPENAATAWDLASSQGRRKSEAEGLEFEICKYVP
Procedure: (§1) Based on the in vitro assays against TbPTR1 and LmPTR1 performed in the previous works of our group, as well as the in silico results obtained from the current study, a total of 47 natural products were tested against the target enzymes. […] The concentration-effect curves for the IC50 and EC50 values that were obtained in the present study are depicted in Supplementary Materials Figures S21–S42.
The TbDHFR concentration was measured to be 0.04 mg/mL and a specific activity of 38.1 U/mg was calculated. The concentration of LmDHFR was 0.05 mg/mL with a specific activity of 56.2 U/mg. All measurements were carried out using the saturating concentrations for dihydrofolate (50 μM) and NADPH (150 μM) in Buffer C (50 mM Tris/HCl (pH 7.6), 250 mM NaCl, 10 mM BME). The saturating conditions for TbDHFR and LmDHFR were determined using the diagrams depicted in Figures S17 and S19 in the Supplementary Materials.
(§2) The inhibitory effect of the selected natural products was investigated by testing the DMSO solution of each compound at a constant concentration of 100 μM for TbPTR1 and 50 μM for LmPTR1, TbDHFR, and LmDHFR, as well as hDHFR. The concentrations of the cofactor and substrates were set at the previously determined saturating conditions (Section 4.2.5). Each test compound was incubated for 20 min with the respective enzyme and NADPH to ensure a sufficient interaction time before the reaction was induced by the addition of the substrate. The enzymatic activity was determined in duplicates and correlated with a reference that contained just DMSO, instead of an inhibitor. The enzymatic activity of the reference was normalized to 100%.
(§3) The half-maximal inhibitory concentration (IC50) of the natural products was determined in triplicate, using at least five different inhibitor concentrations against a reference containing no inhibitor. The enzymatic activity was documented and analyzed and the IC50 value was determined by nonlinear regression using GraphPad Prism 9 (GraphPad Software Inc., La Jolla, CA, USA).

hDHFR = biological target: T2, hDHFR (Homo sapiens, UniProt P00374); assay: Spectrophotometric enzyme inhibition assay, recombinant hDHFR (selectivity); assay type: biochemical; conditions: for EC50: read-out: EC50 hDHFR (footnote a); for inhibition at 50 µM: set compound concentration of 50 μM, read-out: relative inhibition of hDHFR
T2 construct: His; host or cells: E. coli BL21 (DE3), vector pET 15b::hDHFRHis
T2 sequence (P00374 1-187): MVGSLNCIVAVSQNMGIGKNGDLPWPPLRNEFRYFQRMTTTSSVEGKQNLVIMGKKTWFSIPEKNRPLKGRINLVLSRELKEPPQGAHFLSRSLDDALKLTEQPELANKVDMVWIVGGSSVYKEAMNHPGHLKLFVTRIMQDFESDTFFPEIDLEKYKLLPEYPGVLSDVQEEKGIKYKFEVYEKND
Procedure: For 15 compounds, there was enough substance available to be tested in selectivity studies against hDHFR.
The used hDHFR concentration was 0.64 mg/mL, with a specific activity of 0.62 U/mg. All measurements were carried out using the saturating concentrations for dihydrofolate (100 μM) and NADPH (50 μM) in Buffer C (50 mM Tris/HCl (pH 7.6), 250 mM NaCl, 10 mM BME). The saturating conditions for hDHFR were determined using the diagrams depicted in Figure S20 in the Supplementary Materials.
as §2, §3

TbPTR1 [1] = biological target: T3, TbPTR1 (Trypanosoma brucei brucei, UniProt O76290)
T3 construct: His6 (N); made in house; host or cells: E. coli BL21 (DE3), vector pET 15b::TbPTR1His (strain from the group of M. Paola Costi, Modena)
T3 sequence (O76290 1-268): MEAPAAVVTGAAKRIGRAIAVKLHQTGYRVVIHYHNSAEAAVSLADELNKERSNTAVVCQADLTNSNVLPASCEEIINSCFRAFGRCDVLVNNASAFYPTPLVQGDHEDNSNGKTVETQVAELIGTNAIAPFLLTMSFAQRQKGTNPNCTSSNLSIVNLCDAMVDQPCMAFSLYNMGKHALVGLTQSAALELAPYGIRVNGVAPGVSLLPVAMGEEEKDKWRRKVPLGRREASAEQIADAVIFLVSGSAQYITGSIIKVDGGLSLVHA

TbPTR1 [2] = biological target: T3, TbPTR1; assay: Spectrophotometric enzyme inhibition assay, recombinant TbPTR1; assay type: biochemical
Procedure: as §1
(§4) The used TbPTR1 concentration was 3.23 mg/mL, with a specific activity of 0.03 U/mg. The measurements were carried out using the enzyme’s individual saturating concentrations for folic acid (8 μM) and NADPH (150 μM) in Buffer A (50 mM Tris/HCl (pH 7.6), 250 mM NaCl). For LmPTR1, the protein concentration was 5.02 mg/mL and the specific activity was calculated to be 0.29 U/mg. Buffer B (50 mM NaH2PO4 (pH 6.0), 100 mM NaCl) was used for all LmPTR1 measurements and the saturating concentrations amounted to 50 μM of folic acid and 200 μM of NADPH. The saturating conditions of the PTR1 enzymes were determined using the diagrams depicted in Figures S16 and S18 in the Supplementary Materials.
as §2, §3

LmPTR1 [3] = biological target: T4, LmPTR1 (Leishmania major, UniProt Q01782); assay: Spectrophotometric enzyme inhibition assay, recombinant LmPTR1; assay type: biochemical; conditions: for IC50: read-out: IC50 LmPTR1
T4 construct: His6 (N); made in house; host or cells: E. coli BL21 (DE3), vector pET 15b::LmPTR1His (strain from the group of M. Paola Costi, Modena)
T4 sequence (Q01782 1-288): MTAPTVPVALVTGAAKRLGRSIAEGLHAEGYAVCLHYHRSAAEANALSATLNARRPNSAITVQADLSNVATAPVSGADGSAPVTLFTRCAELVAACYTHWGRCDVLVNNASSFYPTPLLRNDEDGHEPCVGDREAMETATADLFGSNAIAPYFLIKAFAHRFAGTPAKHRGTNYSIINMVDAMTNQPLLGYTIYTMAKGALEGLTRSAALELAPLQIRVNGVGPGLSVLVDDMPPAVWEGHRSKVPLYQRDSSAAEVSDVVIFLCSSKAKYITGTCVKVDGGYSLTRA
Procedure: as §1, §4, §2, §3

TbPTR1 [4] = biological target: T3, TbPTR1; assay: Dilution assay for reversible/irreversible inhibition of TbPTR1; assay type: biochemical; conditions: inhibitor concentration near IC50
Source text: The catalytic center of TbPTR1 contains a cysteine residue (TbCys168) in close proximity to the substrate/inhibitor binding site. In our previous publication, we mentioned the possibility that Sesquiterpene Lactones 1 and 2 might interact as Michael acceptors with TbCys168 by covalent bond formation with its thiol group. Therefore, we have now subjected a selection of natural product inhibitors containing Michael acceptors (1, 2, 5, 17) to initial testing for irreversible inhibition, according to the dilution method described by Bisswanger (see Section 4.2.9).
In this method, the enzyme activity of the respective enzyme-inhibitor mixture is measured before and after a defined dilution (in this study, 1:2). In the absence of an inhibitor, dilution decreases the enzyme activity proportionally to the dilution factor. […] A reversible inhibitor, on the other hand, will dissociate upon dilution, resulting in a weaker decrease in activity than what corresponds to the dilution effect. In the presence of Inhibitors 1 and 2, the decrease in TbPTR1 activity upon the 1:2 dilution was almost proportional to the dilution factor, i.e., only 9.5% and 6.8% activity, respectively, were recovered compared to the reference. This would indeed support an irreversible mechanism of inhibition. […] However, further investigations on these compounds’ mechanisms of inhibition are under way.
To assign an either reversible or irreversible inhibition mechanism to selected compounds, the enzymatic activity of an enzyme-inhibitor mixture was determined before and after a defined dilution, using the reaction conditions described in Section 4.2.5 [16].
Two equivalent solutions with the respective enzyme and inhibitor combination were prepared, one of them being diluted with buffer in a 1:2 ratio shortly before the reaction was started by adding the substrate. The respective inhibitor concentration was set near the IC50 value. The substrate and cofactor concentrations were kept constant in both reaction mixtures. All measurements were carried out in duplicates against a reference containing DMSO instead of the inhibitor. […] If a reversible inhibitor was present, a higher degree of activity recovery (>>10%) could be observed than what corresponds to the dilution factor due to the partial dissociation of the inhibitor from the enzyme upon dilution. The percentual changes in the enzymatic activity of the undiluted and diluted test solution were compared and evaluated to decide the mechanism of inhibition.

T. brucei [5] = conditions: read-out: EC50 in vitro against T. brucei; cited from earlier work
L. major = conditions: read-out: EC50 against L. major; cited from earlier work
TbDHFR = biological target: T5, TbDHFR (Trypanosoma brucei brucei, UniProt Q27783); assay: Spectrophotometric enzyme inhibition assay, recombinant TbDHFR; assay type: biochemical
T5 construct: pET 11D::TbDHFRHis vector design for the recombinant overexpression of TbDHFR in E. coli; His; made in house; host or cells: E. coli BL21(DE3), vector pET 11D::TbDHFRHis
Procedure: Based on the in vitro assays against TbPTR1 and LmPTR1 performed in the previous works of our group, as well as the in silico results obtained from the current study, a total of 47 natural products were tested against the target enzymes.
The saturating conditions for TbDHFR and LmDHFR were determined using the diagrams depicted in Figures S17 and S19 in the Supplementary Materials.
as §2, §3

T. brucei [6] = test system: T. brucei; parameters: method as in PMID 27077842; conditions: read-out: IC50 antitrypanosomal activity in T. brucei cell assays; cited from earlier work
LmPTR1 [7] = biological target: T4, LmPTR1; parameters: method as in PMID 29211037; conditions: read-out: IC50 LmPTR1; from previous study; cited from earlier work

T5 sequence (Q27783 28-238 limits assumed): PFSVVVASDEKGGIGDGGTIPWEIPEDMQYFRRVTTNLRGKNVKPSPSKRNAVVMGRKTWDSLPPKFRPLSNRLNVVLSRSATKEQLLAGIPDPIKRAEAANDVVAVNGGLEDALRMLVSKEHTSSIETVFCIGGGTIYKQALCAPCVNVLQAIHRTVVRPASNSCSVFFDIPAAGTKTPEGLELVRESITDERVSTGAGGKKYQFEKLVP

| EC50 (hDHFR) [µM] | Compound | IC50 (hDHFR) [µM] | inhibition at 50 µM (hDHFR) [%] | IC50 (TbPTR1 [2]; read-out: IC50 TbPTR1) [µM] | IC50 (LmPTR1 [3]) [µM] | TbPTR1 activity recovered upon 1:2 dilution compared to the reference (TbPTR1 [4]) [%] | IC50 (TbDHFR; read-out: IC50 TbDHFR) [µM] | also measured |
| --- | --- | --- | --- | --- | --- | --- | --- | --- |
| 1.7 | CC(C)=CCc1c(O)cc2oc3cc(O)c(O)c(CCC(C)(C)O)c3c(=O)c2c1O [Compound 6, garcinone c] | 1.7 | > 50 |  |  |  |  | IC50 (LmDHFR; read-out: IC50 LmDHFR): 3 µM; IC50 (TbPTR1 [1]; from previous study; read-out: IC50 TbPTR1; cited from earlier work): > 100 µM |
|  | COc1cc(/C=C/C(=O)CC(=O)/C=C/c2ccc(O)c(OC)c2)ccc1O [Compound 5, curcumin] | 33.9 | > 50 | 18.5 | > 50 | 16.6 |  | EC50 (T. brucei [5]): 2.5 µM; EC50 (L. major): 33 µM |
| 31.6 | C=C(C)[C@H](CC=C(C)C)Cc1c(O)cc(O)c2c1O[C@H](c1ccc(O)cc1O)CC2=O [Compound 9, sophoraflavanone G] |  | > 50 | 31.8 |  |  | 9.4 | IC50 (LmDHFR; read-out: IC50 LmDHFR): 14 µM; IC50 (T. brucei [6]): 1.4 µM |
|  | O=C(/C=C/CCc1ccc(O)c(O)c1)CCc1ccc(O)c(O)c1 [Compound 17, dehydrohirsutanone] | 40.7 | > 50 | 8.3 | > 50 | 12.8 | 17.7 | EC50 (T. brucei [5]): 2.5 µM; EC50 (L. major): > 100 µM |
|  | O=C(/C=C/c1ccc(O)c(O)c1/C=C/c1ccc(O)c(O)c1)O[C@H](Cc1ccc(O)c(O)c1)C(=O)O [Compound 8, salvianolic acid A] | > 50 |  | 85.1 |  |  |  | IC50 (TbDHFR): 2.5 µM; EC50 (LmDHFR): 18.7 µM; IC50 (T. brucei [6]): 3.1 µM |
|  | O=C(OC1Cc2c(O)cc(O)cc2OC1c1ccc(O)c(O)c1)c1cc(O)c(O)c(O)c1 (single isomer, unassigned; (-)) [Compound 3, (−)-catchin-3-gallate] | 4.2 | > 50 |  |  |  |  | IC50 (LmDHFR): 0.6 µM; IC50 (TbPTR1 [1]; read-out: IC50 TbPTR1; from previous study; cited from earlier work): > 100 µM; IC50 (LmPTR1 [7]): 75.3 µM |
|  | C=C1C(=O)O[C@@H]2/C=C(\CO)CC/C=C(\C)C[C@H](OC(=O)C(=C)[C@H](O)CO)[C@@H]12 [Compound 1, cnicin] | > 50 |  |  | > 50 | 9.5 | > 50 | inhibitory effect against LmPTR1 (LmPTR1 [3]): No relevant inhibitory effect; inhibition of hDHFR (hDHFR): no relevant inhibition; EC50 (TbPTR1 [1]; EC50 value; from previous study; read-out: EC50 TbPTR1 (footnote a); cited from earlier work): 12.2 µM |

| Compound | EC50 (hDHFR) [µM] | IC50 (hDHFR) [µM] | inhibition at 50 µM (hDHFR) [%] | IC50 (TbPTR1 [2]; read-out: IC50 TbPTR1) [µM] | IC50 (LmPTR1 [3]) [µM] | TbPTR1 activity recovered upon 1:2 dilution compared to the reference (TbPTR1 [4]) [%] | IC50 (TbDHFR; read-out: IC50 TbDHFR) [µM] | also measured |
| --- | --- | --- | --- | --- | --- | --- | --- | --- |
| COc1cc([C@@H]2Oc3cc(-c4oc5cc(O)cc(O)c5c(=O)c4O)ccc3O[C@H]2CO)ccc1O [Compound 4, 2,3-dehydrosilybin B] | 3.8 |  | > 50 |  |  |  |  | IC50 (TbPTR1 [2]): > 100 µM; IC50 (LmDHFR): 2.6 µM; IC50 (LmPTR1 [7]): 42.9 µM |
